Results as given in PubChem BioAssay (NCI).
Values joined by “and” are separate entries in the source; they are usually repeats but may differ in a detail not shown here. Identical values can stand only once.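 Cultured in 96-well plates, cells were exposed to test compound for 48 hours across five concentrations. The concentration for 50% growth inhibition is given as GI50. At the TGI there is no net growth.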

Tests used:
Test in all cases: NCI anticancer screen, dose series, 48 h
[1] = system: A498 renal
[2] = system: SF-295 CNS
[3] = system: MALME-3M melanoma
[4] = system: CAKI-1 renal
[5] = system: SF-539 CNS
[6] = system: NCI-H226 lung
[7] = system: SK-MEL-28 melanoma
[8] = system: BT-549 breast
[9] = system: SN12C renal
[10] = system: NCI-H460 lung
[11] = system: LOX IMVI melanoma
[12] = system: M14 melanoma
[13] = system: OVCAR-5 ovarian
[14] = system: UACC-257 melanoma
[15] = system: COLO 205 colon
[16] = system: NCI-H522 lung
[17] = system: HCC-2998 colon
[18] = system: SF-268 CNS
[19] = system: K-562 leukemia
[20] = system: TK-10 renal
[21] = system: OVCAR-4 ovarian
[22] = system: A549 NSCLC
[23] = system: SNB-19 CNS
[24] = system: 786-0 renal
[25] = system: MDA-MB-231 breast
[26] = system: SW-620 colon
[27] = system: HCT-15 colon
[28] = system: UO-31 renal
[29] = system: SK-OV-3 ovarian
[30] = system: CCRF-CEM leukemia
[31] = system: NCI/ADR-RES ovarian
[32] = system: MCF7 breast
[33] = system: MDA-MB-435
[34] = system: ACHN renal
[35] = system: HS 578T breast
[36] = system: HCT-116 colon
[37] = system: OVCAR-3 ovarian
[38] = system: SR leukemia
[39] = system: IGROV1 ovarian
[40] = system: T-47D breast
[41] = system: HOP-92 NSCLC
[42] = system: RXF 393 renal
[43] = system: OVCAR-8 ovarian
[44] = system: DU-145 prostate
[45] = system: HOP-62 NSCLC
[46] = system: UACC-62 melanoma
[47] = system: EKVX NSCLC
[48] = system: HL-60(TB) leukemia
[49] = system: RPMI-8226 leukemia
[50] = system: MOLT-4 leukemia
[51] = system: HT29 colon
[52] = system: KM12 colon
[53] = system: PC-3 prostate
[54] = system: SK-MEL-5 melanoma
[55] = system: SK-MEL-2 melanoma
[56] = system: SNB-75 CNS
[57] = system: NCI-H23 lung

With CN1C(=O)[C@]23SSC1(C)C(=O)N2[C@H]1Nc2ccccc2C1([C@@]12c4ccccc4N[C@@H]1N1C(=O)C4(C)SS[C@]1(C(=O)N4C)[C@H]2O)[C@@H]3O (stereo partly specified) as the compound, how does the GI50 [1] read?
Its GI50 is 384 nM and 2330 nM.

And the TGI [1]?
The TGI was 678 nM and 3810 nM.

What about the GI50 [2] of the same compound?
The GI50 was 275 nM and 2380 nM.

And the TGI [2]?
Its TGI is 555 nM and 4690 nM.

And the GI50 [3]?
Its GI50 is 22.7 nM and 50.5 nM.

And the TGI [3]?
The TGI was 53.9 nM and 184 nM.

What about the GI50 [4] of the same compound?
Its GI50 is 48.8 nM and 154 nM.

What about the TGI [4] of the same compound?
Its TGI is 170 nM and 396 nM.

What about the GI50 [5] of the same compound?
Its GI50 is 68.7 nM and 277 nM.

What about the TGI [5] of the same compound?
Its TGI is 264 nM and 762 nM.

What about the GI50 [6] of the same compound?
Its GI50 is 290 nM.

And the TGI [6]?
Its TGI is 807 nM.

And the GI50 [7]?
The GI50 was 33.9 nM and 187 nM.

And the TGI [7]?
Its TGI is 76.6 nM and 419 nM.

What about the GI50 [8] of the same compound?
The GI50 was 218 nM and 1490 nM.

And the TGI [8]?
Its TGI is 486 nM and 2970 nM.

And the GI50 [9]?
Its GI50 is 107 nM and 407 nM.

And the TGI [9]?
The TGI was 1170 nM and 1910 nM.

What about the GI50 [10] of the same compound?
Its GI50 is 129 nM and 326 nM.

What about the TGI [10] of the same compound?
The TGI was 1490 nM and 1140 nM.

What about the GI50 [11] of the same compound?
Its GI50 is 30.9 nM and 165 nM.

And the TGI [11]?
Its TGI is 70.8 nM and 394 nM.

And the GI50 [12]?
The GI50 was 48.2 nM and 175 nM.

What about the TGI [12] of the same compound?
The TGI was 163 nM and 451 nM.

What about the GI50 [13] of the same compound?
The GI50 was 360 nM and 1440 nM.

And the TGI [13]?
Its TGI is 756 nM and 4210 nM.

And the GI50 [14]?
Its GI50 is 34.8 nM and 208 nM.

What about the TGI [14] of the same compound?
The TGI was 94.3 nM and 488 nM.

What about the GI50 [15] of the same compound?
The GI50 was 28.3 nM and 153 nM.

What about the TGI [15] of the same compound?
The TGI was 61.3 nM and 395 nM.

And the GI50 [16]?
Its GI50 is 28.8 nM and 179 nM.

What about the TGI [16] of the same compound?
Its TGI is 61.9 nM and 395 nM.

And the GI50 [17]?
The GI50 was 79.1 nM and 567 nM.

What about the TGI [17] of the same compound?
Its TGI is 297 nM and 1940 nM.

What about the GI50 [18] of the same compound?
The GI50 was 309 nM and 1960 nM.

What about the TGI [18] of the same compound?
The TGI was 1260 nM and 5580 nM.

And the GI50 [19]?
The GI50 was 39.7 nM and 84.7 nM.

What about the TGI [19] of the same compound?
Its TGI is 2880 nM and 10500 nM.

What about the GI50 [20] of the same compound?
The GI50 was 54.5 nM and 503 nM.

And the TGI [20]?
The TGI was 128 nM and 906 nM.

What about the GI50 [21] of the same compound?
The GI50 was 30.2 nM and 164 nM.

And the TGI [21]?
Its TGI is 73.1 nM and 322 nM.

What about the TGI [22] of the same compound?
Its TGI is 1100 nM and 6850 nM.

And the GI50 [23]?
The GI50 was 455 nM and 1330 nM.

What about the TGI [23] of the same compound?
Its TGI is 1580 nM and 4340 nM.

What about the GI50 [24] of the same compound?
Its GI50 is 44.8 nM and 185 nM.

What about the TGI [24] of the same compound?
The TGI was 108 nM and 363 nM.

What about the GI50 [25] of the same compound?
The GI50 was 54.9 nM and 321 nM.

And the TGI [25]?
Its TGI is 184 nM and 827 nM.

What about the GI50 [26] of the same compound?
Its GI50 is 66.7 nM and 144 nM.

And the TGI [26]?
The TGI was 434 nM and 660 nM.

What about the GI50 [27] of the same compound?
The GI50 was 21.7 nM and 143 nM.

What about the GI50 [28] of the same compound?
Its GI50 is 45.2 nM and 192 nM.

What about the TGI [28] of the same compound?
Its TGI is 122 nM and 367 nM.

What about the GI50 [29] of the same compound?
Its GI50 is 293 nM and 1670 nM.

And the TGI [29]?
Its TGI is 751 nM and 4050 nM.

What about the GI50 [30] of the same compound?
Its GI50 is 73.9 nM and 203 nM.

And the TGI [30]?
Its TGI is 1560 nM and 2210 nM.

And the GI50 [31]?
The GI50 was 121 nM and 549 nM.

What about the TGI [31] of the same compound?
Its TGI is 588 nM and 3740 nM.

What about the GI50 [32] of the same compound?
Its GI50 is 10.7 nM and 45.7 nM.

And the TGI [32]?
Its TGI is 223 nM and 1220 nM.

What about the GI50 [33] of the same compound?
The GI50 was 96.7 nM and 265 nM.

And the TGI [33]?
Its TGI is 413 nM and 804 nM.

And the GI50 [34]?
The GI50 was 37.1 nM and 57.7 nM.

What about the TGI [34] of the same compound?
The TGI was 100 nM and 508 nM.

What about the GI50 [35] of the same compound?
Its GI50 is 465 nM and 1580 nM.

What about the TGI [35] of the same compound?
Its TGI is 1730 nM and 5400 nM.

And the GI50 [36]?
The GI50 was 55.8 nM and 97.4 nM.

What about the TGI [36] of the same compound?
The TGI was 229 nM and 556 nM.

And the GI50 [37]?
The GI50 was 20.2 nM and 183 nM.

And the TGI [37]?
Its TGI is 57.1 nM and 426 nM.

And the GI50 [38]?
Its GI50 is 46.5 nM and 210 nM.

What about the TGI [38] of the same compound?
The TGI was 417 nM and 1070 nM.

What about the GI50 [39] of the same compound?
The GI50 was 238 nM and 290 nM.

And the TGI [39]?
The TGI was 570 nM and 864 nM.

What about the GI50 [40] of the same compound?
Its GI50 is 22 nM and 184 nM.

What about the TGI [40] of the same compound?
Its TGI is 89.9 nM and 595 nM.

What about the GI50 [41] of the same compound?
Its GI50 is 307 nM and 302 nM.

And the TGI [41]?
Its TGI is 640 nM and 674 nM.

What about the GI50 [42] of the same compound?
The GI50 was 33 nM and 170 nM.

And the TGI [42]?
The TGI was 65.7 nM and 318 nM.

What about the GI50 [43] of the same compound?
Its GI50 is 34.8 nM and 165 nM.

What about the TGI [43] of the same compound?
The TGI was 75.1 nM and 359 nM.

And the GI50 [44]?
Its GI50 is 46.1 nM and 299 nM.

What about the TGI [44] of the same compound?
The TGI was 208 nM and 1440 nM.

And the GI50 [45]?
Its GI50 is 219 nM and 1400 nM.

What about the TGI [45] of the same compound?
Its TGI is 576 nM and 3300 nM.

What about the GI50 [46] of the same compound?
The GI50 was 137 nM and 420 nM.

And the TGI [46]?
Its TGI is 398 nM and 1820 nM.

What about the GI50 [47] of the same compound?
Its GI50 is 64.4 nM and 606 nM.

What about the TGI [47] of the same compound?
Its TGI is 504 nM and 3690 nM.

And the GI50 [48]?
Its GI50 is 235 nM and 254 nM.

What about the TGI [48] of the same compound?
Its TGI is 782 nM and 1530 nM.

And the GI50 [49]?
Its GI50 is 53.6 nM and 257 nM.

What about the TGI [49] of the same compound?
The TGI was 221 nM and 882 nM.

And the GI50 [50]?
The GI50 was 65.3 nM and 214 nM.

What about the TGI [50] of the same compound?
Its TGI is 590 nM and 1370 nM.

And the GI50 [51]?
The GI50 was 27.6 nM and 187 nM.

And the TGI [51]?
Its TGI is 86.5 nM and 454 nM.

And the GI50 [52]?
The GI50 was 140 nM and 1210 nM.

What about the TGI [52] of the same compound?
The TGI was 478 nM and 3410 nM.

And the GI50 [53]?
The GI50 was 185 nM and 662 nM.

And the TGI [53]?
Its TGI is 720 nM and 3010 nM.

And the TGI [54]?
The TGI was 242 nM and 2010 nM.

What about the GI50 [55] of the same compound?
Its GI50 is 265 nM and 718 nM.

What about the TGI [55] of the same compound?
The TGI was 540 nM and 2160 nM.

What about the GI50 [56] of the same compound?
The GI50 was 209 nM and 1960 nM.

What about the TGI [56] of the same compound?
The TGI was 544 nM and 3500 nM.

What about the GI50 [57] of the same compound?
Its GI50 is 37.4 nM.

What about the TGI [57] of the same compound?
The TGI was 101 nM.
